The values below come from publication PMC11855827, “High-Throughput Screening of Five Compound Libraries for Anthelmintic Activity and Toxicity Leads to the Discovery of Two Flavonoid Compounds” (International Journal of Molecular Sciences, 2025).

Where two headings read alike, the source gives them in different places.

This experiment has as its system C. elegans. The experiment is described as follows: microbe, parasite or virus in culture. The following applies: Caenorhabditis elegans.
Where [1] appears, read: 0 h, read-out: Percentage of motility inhibition 0 h, Table S2, C. elegans SS assay, 110 μM, 0 h, averages of 4 data points.
The mark [2] stands for this setting: 24 h, read-out: Percentage of motility inhibition 24 h, Table S2, C. elegans SS assay, 110 μM, 24 h, averages of 4 data points.

For the molecule `CCc1nc(N)nc(N)c1-c1ccc(Cl)cc1` [Pyrimethamine], the inhibition at 110 µM came to 35% under setting [1] and 2% under setting [2].

Take `O=Cc1ccc[nH]1` [Pyrrole‐2‐carboxaldehyde]: the inhibition at 110 µM reads like this: under setting [1], 0%; under setting [2], 6%.

Turning to `O=c1c(O)c(-c2ccc(O)c(O)c2)oc2cc(O)c(O)c(O)c12` [Quercetagetin], the inhibition at 110 µM by setting is: (0 h, read-out: Percentage of motility inhibition 0 h) 15%; (24 h, read-out: Percentage of motility inhibition 24 h) 10%.

As to `O=c1c(O)c(-c2ccc(O)c(O)c2)oc2cc(O)cc(O)c12` [Quercetin], the inhibition at 110 µM runs as follows: under setting [1], 24%; under setting [2], 11%.

As for `O=c1c(O)c(-c2ccc(O)c(O)c2)oc2cc(O[C@@H]3O[C@H](CO)[C@@H](O)[C@H](O)[C@H]3O)cc(O)c12` [Quercimeritrin], the inhibition at 110 µM is, setting by setting: under setting [1], 0%; under setting [2], 3%.

Turning to `C[C@@H]1O[C@@H](Oc2c(-c3ccc(O)c(O)c3)oc3cc(O)cc(O)c3c2=O)[C@H](O)[C@H](O)[C@H]1O` [Quercitrin], the inhibition at 110 µM turned out to be 4% under setting [1] and 0% under setting [2].

Take `CC1(C)CC[C@]2(C(=O)O)[C@H](O)C[C@]3(C)C(=CC[C@@H]4[C@@]5(C)CC[C@H](O)[C@@](C)(C=O)[C@@H]5CC[C@]43C)[C@@H]2C1` [Quillaic acid]: the inhibition at 110 µM reads like this: under setting [1], 14%; under setting [2], 16%.

As for `C=C[C@H]1C[N@@]2CC[C@H]1C[C@@H]2[C@@H](O)c1ccnc2ccc(OC)cc12` [Quinidine], the inhibition at 110 µM stood at 23% under setting [1] and 3% under setting [2].

In the case of `O=C(O)c1cccnc1C(=O)O` [Quinolinic acid], the inhibition at 110 µM under setting [1] is 0% and the inhibition at 110 µM under setting [2] was found to be 0%.

On to `O=C(CBr)N1CC([N+](=O)[O-])([N+](=O)[O-])C1` [RRx‐001], for which the inhibition at 110 µM is, setting by setting: under setting [1], 19%; under setting [2], 6%.

For the molecule `O=C(Nc1ccccc1F)N[C@H]1N=C(c2ccccc2)c2ccccc2NC1=O` [RSV604], the inhibition at 110 µM came out at 37% under setting [1] and 15% under setting [2].

Regarding `O=C(Nc1ccc(Oc2ccc(Cl)cc2)c(Cl)c1)c1cc(I)cc(I)c1O` [Rafoxanide], the inhibition at 110 µM under setting [1] was determined as 8% and the inhibition at 110 µM under setting [2] is 1%.

`C=C[C@]1(C)C[C@@H](OC(=O)CS[C@@H]2C[C@H]3CC[C@@H](C2)N3C)[C@]2(C)[C@H](C)CC[C@]3(CCC(=O)[C@H]32)[C@@H](C)[C@@H]1O` [Retapamulin]: the inhibition at 110 µM runs as follows: under setting [1], 27%; under setting [2], 9%.

For the molecule `CC1=C(/C=C/C(C)=C/C=C/C(C)=C/C(=O)O)C(C)(C)CCC1` [Retinoic acid], the inhibition at 110 µM is, setting by setting: under setting [1], 18%; under setting [2], 40%.

Take `CC(=O)OC/C=C(C)/C=C/C=C(C)/C=C/C1=C(C)CCCC1(C)C` [Retinyl acetate]: the inhibition at 110 µM is 0% under setting [1] and 0% under setting [2].

As for `O=c1c(O[C@@H]2OC[C@@H](O)[C@H](O)[C@H]2O)c(-c2ccc(O)c(O)c2)oc2cc(O)cc(O)c12` [Reynoutrin], the inhibition at 110 µM runs as follows: under setting [1], 0%; under setting [2], 7%.

On to `COc1cc(O)c2c(=O)c(O)c(-c3ccc(O)c(O)c3)oc2c1` [Rhamnetin], for which the inhibition at 110 µM is 29% under setting [1] and 12% under setting [2].

Take `CC[C@H]1CN2CC[C@]3(C(=O)Nc4ccccc43)[C@@H]2C[C@@H]1/C(=C\OC)C(=O)OC` [Rhynchophylline]: the inhibition at 110 µM stood at 0% under setting [1] and 8% under setting [2].

With `Cc1cc2nc3c(=O)[nH]c(=O)nc-3n(C[C@H](O)[C@H](O)[C@H](O)CO)c2cc1C` [Riboflavin], the inhibition at 110 µM was found to be 3% under setting [1] and 6% under setting [2].

As for `CO[C@H]1/C=C/O[C@@]2(C)Oc3c(C)c(O)c4c(c3C2=O)C2=NC3(CCN(CC(C)C)CC3)NC2=C(NC(=O)/C(C)=C\C=C\[C@H](C)[C@H](O)[C@@H](C)[C@@H](O)[C@@H](C)[C@H](OC(C)=O)[C@@H]1C)C4=O` [Rifabuti n], the inhibition at 110 µM reads like this: under setting [1], 41%; under setting [2], 2%.

As for `CO[C@H]1/C=C/O[C@@]2(C)Oc3c(C)c(O)c4c(O)c(c(/C=N/N5CCN(C)CC5)c(O)c4c3C2=O)NC(=O)/C(C)=C\C=C\[C@H](C)[C@H](O)[C@@H](C)[C@@H](O)[C@@H](C)[C@H](OC(C)=O)[C@@H]1C` [Rifampicin], the inhibition at 110 µM reads like this: under setting [1], 13%; under setting [2], 4%.

In the case of `CO[C@H]1/C=C/O[C@@]2(C)Oc3c(C)c(O)c4c(O)c(c(/C=N/N5CCN(C6CCCC6)CC5)c(O)c4c3C2=O)NC(=O)/C(C)=C\C=C\[C@H](C)[C@H](O)[C@@H](C)[C@@H](O)[C@@H](C)[C@H](OC(C)=O)[C@@H]1C` [Rifapen tine], the inhibition at 110 µM by setting is: under setting [1], 9%; under setting [2], 13%.

With `CO[C@H]1/C=C/O[C@@]2(C)Oc3c(C)c(O)c4c(O)c(c5c(nc6cc(C)ccn65)c4c3C2=O)NC(=O)/C(C)=C\C=C\[C@H](C)[C@H](O)[C@@H](C)[C@@H](O)[C@@H](C)[C@H](OC(C)=O)[C@@H]1C` [Rifaximin], the inhibition at 110 µM by setting is: under setting [1], 7%; under setting [2], 1%.

As for `Cc1cc(/C=C/C#N)cc(C)c1Nc1ccnc(Nc2ccc(C#N)cc2)n1` [Rilpivirine], the inhibition at 110 µM is, setting by setting: under setting [1], 32%; under setting [2], 20%.

As for `CC(C)c1nc(CN(C)C(=O)N[C@H](C(=O)N[C@@H](Cc2ccccc2)C[C@H](O)[C@H](Cc2ccccc2)NC(=O)OCc2cncs2)C(C)C)cs1` [Ritonavir], the inhibition at 110 µM was found to be 2% under setting [1] and 0% under setting [2].

For the molecule `O=c1c(O)c(-c2cc(O)c(O)c(O)c2)oc2cc(O)ccc12` [Robinetin], the inhibition at 110 µM runs as follows: under setting [1], 39%; under setting [2], 7%.

Consider `CC1OC(OCC2OC(Oc3c(-c4ccc(O)cc4)oc4cc(OC5OC(C)C(O)C(O)C5O)cc(O)c4c3=O)C(O)C(O)C2O)C(O)C(O)C1O` (centres unmarked) [Robinin], for which the inhibition at 110 µM runs as follows: under setting [1], 31%; under setting [2], 8%.

In the case of `COc1c2ccoc2nc2c(O)cccc12` [Robustine], the inhibition at 110 µM stood at 16% under setting [1] and 7% under setting [2].

Regarding `CN1CCc2cc3c(c4c2C1Cc1ccccc1-4)OCO3` (centres unmarked) [Roemerine], the inhibition at 110 µM reads like this: under setting [1], 0%; under setting [2], 0%.

In the case of `Cn1c([N+](=O)[O-])cnc1COC(N)=O` [Ronidazole], the inhibition at 110 µM turned out to be 9% under setting [1] and 0% under setting [2].

With `C[C@@H]1CC[C@]2(C(=O)O)CC[C@]3(C)C(=CC[C@@H]4[C@@]5(C)CC[C@H](O)[C@@](C)(CO)[C@@H]5CC[C@]43C)[C@@H]2[C@]1(C)O` [Rotundic acid], the inhibition at 110 µM is, setting by setting: under setting [1], 24%; under setting [2], 45%.

Consider `CC[C@H]1OC(=O)[C@H](C)[C@@H](O[C@H]2C[C@@](C)(OC)[C@@H](O)[C@H](C)O2)[C@H](C)[C@@H](O[C@@H]2O[C@H](C)C[C@H](N(C)C)[C@H]2O)[C@](C)(O)C[C@@H](C)/C(=N\OCOCCOC)[C@H](C)[C@@H](O)[C@]1(C)O` [Roxithromycin], for which the inhibition at 110 µM is, setting by setting: under setting [1], 22%; under setting [2], 4%.

As for `CC[C@@]1(O)C(=O)OCc2c1cc1n(c2=O)Cc2cc3c([N+](=O)[O-])cccc3nc2-1` [Rubitecan], the inhibition at 110 µM is, setting by setting: under setting [1], 5%; under setting [2], 0%.

Consider `C=C1C[C@@]23CC[C@H]4[C@@](C)(CCC[C@@]4(C)C(=O)O[C@@H]4O[C@H](CO)[C@@H](O)[C@H](O)[C@H]4O)[C@@H]2CC[C@]1(O[C@@H]1O[C@H](CO)[C@@H](O)[C@H](O)[C@H]1O)C3` [Rubusoside], for which the inhibition at 110 µM by setting is: under setting [1], 0%; under setting [2], 18%.

Take `O=c1c2ccccc2nc2n1CCc1c-2[nH]c2ccccc12` [Rutaecarpine]: the inhibition at 110 µM runs as follows: under setting [1], 0%; under setting [2], 24%.

In the case of `C[C@@H]1O[C@@H](OC[C@H]2O[C@@H](Oc3c(-c4ccc(O)c(O)c4)oc4cc(O)cc(O)c4c3=O)[C@H](O)[C@@H](O)[C@@H]2O)[C@H](O)[C@H](O)[C@H]1O` [Rutin], the inhibition at 110 µM was determined as 4% under setting [1] and 0% under setting [2].

For the molecule `C=C1CCC2(C(C)C)CC12` (centres unmarked) [Sabinene], the inhibition at 110 µM by setting is: under setting [1], 0%; under setting [2], 20%.

Regarding `C[C@H]1O[C@@H](O[C@H]2CC[C@@]3(C)[C@@H](CC[C@]4(C)[C@@H]3C=C[C@]35OC[C@@]6(CCC(C)(C)C[C@H]63)[C@@H](O)C[C@]54C)[C@]2(C)CO)[C@H](O)[C@@H](O[C@@H]2O[C@H](CO)[C@@H](O)[C@H](O)[C@H]2O)[C@H]1O` [Saikosaponin A], the inhibition at 110 µM reads like this: under setting [1], 2%; under setting [2], 4%.

Take `COc1cc(O)c2c(c1)O[C@H](c1ccc(O)cc1)CC2=O` [Sakuranetin]: the inhibition at 110 µM reads like this: under setting [1], 19%; under setting [2], 18%.

Consider `NC(=O)c1ccccc1O` [Salicylamide], for which the inhibition at 110 µM by setting is: under setting [1], 2%; under setting [2], 0%.

For `O=C(Nc1ccccc1)c1ccccc1O` [Salicylanilide], the inhibition at 110 µM turned out to be 43% under setting [1] and 21% under setting [2].

For the molecule `O=C(O)c1ccccc1O` [Salicylic acid], the inhibition at 110 µM runs as follows: under setting [1], 12%; under setting [2], 8%.

For the molecule `COc1cc2c(cc1OC)[C@H](C)NCC2` [Salsolidine], the inhibition at 110 µM under setting [1] was determined as 0% and the inhibition at 110 µM under setting [2] was determined as 0%.

For the molecule `COc1ccc(-c2cc(=O)c3c(O)c(OC)c(OC)cc3o2)cc1` [Salvigenin], the inhibition at 110 µM came out at 22% under setting [1] and 3% under setting [2].

Take `O=c1cc(-c2ccc(O)cc2)oc2cc(O[C@@H]3O[C@H](CO)[C@@H](O)[C@H](O)[C@H]3O)c([C@@H]3O[C@H](CO)[C@@H](O)[C@H](O)[C@H]3O)c(O)c12` [Saponarin]: the inhibition at 110 µM under setting [1] was found to be 1% and the inhibition at 110 µM under setting [2] was 1%.

As for `O=C1/C(=C/c2ccc(O)c(O)c2)COc2cc(O)ccc21` [Sappanone A], the inhibition at 110 µM is, setting by setting: under setting [1], 0%; under setting [2], 0%.
